Reference: ChEMBL document CHEMBL5724914, “Linking interpersonal differences in gut microbiota composition and drug biotransformation activity” (2024)

Legend:
[1] = human gut metagenome, 24 h, 2 µM
[2] = (§1) The drug is tested on Z-030 corresponding to mouse gut metagenome with ENA study accession number: PRJEB37062 and ENA sample accession number: ERS12561829 for biotransformation under anaerobic condition. The drug concentrations were measured over 9 timepoints collected between 0 and 24 hours of incubation by liquid-chromatography-coupled mass spectrometry (LC–MS); settings: 2 µM
[3] = as §1, with “Z-001” for “Z-030”, “ERS12561801” for “ERS12561829”; settings: 2 µM
[4] = human gut metagenome, 24 h, 2 µM; remark: listed apart in the source
[5] = as §1, with “WLS-069” for “Z-030”, “human” for “mouse”, “ERS12561748” for “ERS12561829”; settings: 2 µM
[6] = as §1, with “Z-007” for “Z-030”, “rat” for “mouse”, “ERS12561807” for “ERS12561829”; settings: 2 µM
[7] = as §1, with “Z-023” for “Z-030”, “to” for “to mouse gut”, “ERS12561822” for “ERS12561829”; settings: 2 µM
[8] = human gut metagenome, 24 h, 2 µM; remark: listed apart in the source
[9] = human gut metagenome, 24 h, 2 µM; remark: listed apart in the source
[10] = human gut metagenome, 24 h, 2 µM; remark: listed apart in the source
[11] = human gut metagenome, 24 h, 2 µM; remark: listed apart in the source
[12] = as §1, with “Z-021” for “Z-030”, “to” for “to mouse gut”, “ERS12561820” for “ERS12561829”; settings: 2 µM
[13] = human gut metagenome, 24 h, 2 µM; remark: listed apart in the source
[14] = as §1, with “Z-016” for “Z-030”, “ERS12561815” for “ERS12561829”; settings: 2 µM
[15] = human gut metagenome, 24 h, 2 µM; remark: listed apart in the source
[16] = human gut metagenome, 24 h, 2 µM; remark: listed apart in the source
[17] = as §1, with “WLS-077” for “Z-030”, “human” for “mouse”, “ERS12561750” for “ERS12561829”; settings: 2 µM
[18] = as §1, with “WLS-007” for “Z-030”, “human” for “mouse”, “ERS12561742” for “ERS12561829”; settings: 2 µM
[19] = human gut metagenome, 24 h, 2 µM; remark: listed apart in the source
[20] = human gut metagenome, 24 h, 2 µM; remark: listed apart in the source
Further: call rule not given here.

Bacterial Biotransformation [1]	Bacterial Biotransformation [2]	Bacterial Biotransformation [3]	Bacterial Biotransformation [4]	Bacterial Biotransformation [5]	Bacterial Biotransformation [6]	Bacterial Biotransformation [7]	Bacterial Biotransformation [8]	Bacterial Biotransformation [9]	Bacterial Biotransformation [10]	Bacterial Biotransformation [11]	Bacterial Biotransformation [12]	Bacterial Biotransformation [13]	Bacterial Biotransformation [14]	Bacterial Biotransformation [15]	Bacterial Biotransformation [16]	Bacterial Biotransformation [17]	Bacterial Biotransformation [18]	Bacterial Biotransformation [19]	Bacterial Biotransformation [20]	SMILES
Compound NOT metabolized	Compound NOT metabolized	Compound NOT metabolized	Compound NOT metabolized	Compound metabolized	Compound NOT metabolized	Compound NOT metabolized	Compound metabolized	Compound metabolized	Compound metabolized	Compound metabolized	Compound NOT metabolized	Compound metabolized	Compound NOT metabolized	Compound metabolized	Compound metabolized	Compound metabolized	Compound NOT metabolized	Compound metabolized	Compound metabolized	Nc1nc(NC2CC2)c2ncn([C@H]3C=C[C@@H](CO)C3)c2n1.Nc1nc(NC2CC2)c2ncn([C@H]3C=C[C@@H](CO)C3)c2n1.O=S(=O)(O)O [ABACAVIR SULFATE]
Compound NOT metabolized	Compound NOT metabolized	Compound NOT metabolized	Compound NOT metabolized	Compound NOT metabolized	Compound NOT metabolized	Compound NOT metabolized	Compound NOT metabolized	Compound metabolized	Compound metabolized	Compound NOT metabolized	Compound NOT metabolized	Compound NOT metabolized	Compound NOT metabolized	Compound metabolized	Compound NOT metabolized	Compound NOT metabolized	Compound NOT metabolized	Compound NOT metabolized	Compound NOT metabolized	CCN(CC)CCNC(=O)c1ccc(NC(C)=O)cc1 [ACECAINIDE]
Compound NOT metabolized	Compound NOT metabolized	Compound NOT metabolized	Compound NOT metabolized	Compound metabolized	Compound NOT metabolized	Compound metabolized	Compound NOT metabolized	Compound metabolized	Compound NOT metabolized	Compound NOT metabolized	Compound NOT metabolized	Compound metabolized	Compound NOT metabolized	Compound metabolized	Compound metabolized	Compound NOT metabolized	Compound metabolized	Compound metabolized	Compound metabolized	O=C1CN2Cc3c(ccc(Cl)c3Cl)N=C2N1 [ANAGRELIDE]
Compound NOT metabolized	Compound NOT metabolized	Compound NOT metabolized	Compound NOT metabolized	Compound metabolized	Compound NOT metabolized	Compound NOT metabolized	Compound NOT metabolized		Compound metabolized	Compound metabolized	Compound NOT metabolized	Compound NOT metabolized	Compound NOT metabolized	Compound metabolized	Compound NOT metabolized	Compound NOT metabolized	Compound NOT metabolized	Compound metabolized	Compound metabolized	CN1CCC[C@@H]1CCO[C@](C)(c1ccccc1)c1ccc(Cl)cc1.O=C(O)/C=C/C(=O)O [CLEMASTINE FUMARATE]
Compound NOT metabolized	Compound NOT metabolized	Compound NOT metabolized	Compound metabolized	Compound metabolized	Compound metabolized	Compound metabolized			Compound NOT metabolized	Compound metabolized	Compound metabolized	Compound metabolized	Compound metabolized		Compound metabolized	Compound metabolized	Compound metabolized	Compound metabolized		COC1=C(OC)C(=O)C(CCCCCCCCCCO)=C(C)C1=O [IDEBENONE]
Compound NOT metabolized	Compound NOT metabolized	Compound NOT metabolized	Compound NOT metabolized	Compound metabolized	Compound NOT metabolized	Compound metabolized	Compound NOT metabolized	Compound NOT metabolized		Compound metabolized	Compound NOT metabolized	Compound metabolized	Compound NOT metabolized	Compound NOT metabolized	Compound NOT metabolized	Compound metabolized	Compound NOT metabolized	Compound metabolized	Compound NOT metabolized	CCCCCNC(=N)N/N=C/c1c[nH]c2ccc(OC)cc12.O=C(O)/C=C\C(=O)O [TEGASEROD MALEATE]

SMILES	Bacterial Biotransformation [1]	Bacterial Biotransformation [2]	Bacterial Biotransformation [3]	Bacterial Biotransformation [4]	Bacterial Biotransformation [5]	Bacterial Biotransformation [6]	Bacterial Biotransformation [7]	Bacterial Biotransformation [8]	Bacterial Biotransformation [9]	Bacterial Biotransformation [10]	Bacterial Biotransformation [11]	Bacterial Biotransformation [12]	Bacterial Biotransformation [13]	Bacterial Biotransformation [14]	Bacterial Biotransformation [15]	Bacterial Biotransformation [16]	Bacterial Biotransformation [17]	Bacterial Biotransformation [18]	Bacterial Biotransformation [19]	Bacterial Biotransformation [20]
CCN(CC)C(=O)C1(c2ccccc2)CC1CN (configuration not stated)	Compound NOT metabolized	Compound NOT metabolized	Compound NOT metabolized	Compound NOT metabolized	Compound NOT metabolized	Compound NOT metabolized	Compound NOT metabolized	Compound NOT metabolized	Compound NOT metabolized	Compound NOT metabolized	Compound NOT metabolized	Compound NOT metabolized	Compound NOT metabolized	Compound NOT metabolized	Compound NOT metabolized	Compound NOT metabolized	Compound NOT metabolized	Compound NOT metabolized	Compound NOT metabolized	Compound NOT metabolized
CC(C)C[C@H]1C(=O)N2CCC[C@H]2[C@]2(O)O[C@](NC(=O)[C@@H]3C=C4c5cccc6[nH]c(Br)c(c56)C[C@H]4N(C)C3)(C(C)C)C(=O)N12.CS(=O)(=O)O [BROMOCRIPTINE MESYLATE]		Compound metabolized	Compound metabolized	Compound NOT metabolized	Compound metabolized	Compound metabolized	Compound metabolized	Compound metabolized	Compound metabolized	Compound metabolized	Compound metabolized	Compound metabolized	Compound metabolized	Compound metabolized	Compound metabolized	Compound metabolized	Compound metabolized	Compound metabolized	Compound metabolized	Compound metabolized
Cc1cc2c(s1)Nc1ccccc1N=C2N1CCN(C)CC1 [OLANZAPINE]		Compound NOT metabolized	Compound metabolized	Compound NOT metabolized	Compound NOT metabolized	Compound NOT metabolized	Compound NOT metabolized	Compound NOT metabolized	Compound NOT metabolized	Compound metabolized	Compound NOT metabolized	Compound NOT metabolized	Compound NOT metabolized	Compound NOT metabolized	Compound NOT metabolized	Compound NOT metabolized	Compound metabolized	Compound NOT metabolized	Compound NOT metabolized	Compound NOT metabolized
